Data from patent US4228162A (priority 1979, dated 1980).

Tests used:
[1] = Preliminary toxicity of dimethyl isosorbide
From the text: We use dimethyl isosorbide (DMI) as the vehicle for the liquid formulation of aspirin. […] When used internally, it is predicted that DMI will be metabolized to form isosorbide, a remedy for diuretic purposes. From the chemical structural point of view, it is seen that DMI is practically inert to aspirin degradation.

[2] = system: rabbit skin; settings: in vivo
Procedure: (§1) Groups of four albino rabbits were given dosages of 1.00, 2.15, 4.64 and 10.0 ml per kg, respectively.

[3] = Procedure: The samples were prepared using USP grade aspirin, which was dried at 110° before use. […] Spectrum b was taken after the sample (containing 10% water) was stored at 70° C. for 96 hours.
[4] = system: rabbit skin; assay: Acute Percutaneous Toxicity--Rabbit
Procedure: as §1

[5] = system: rabbit eye; assay: Eye Irritation--Rabbit; assay type: in vivo
Procedure: […] was instilled into the conjunctival sac of the rabbit eye. Over a period of several years two different lots of DMI (designated here merely as A or B) were tested at different times and at various concentrations. […] The following classification of degree of irritancy, according to the terminology of […], was made for the various tests on the unwashed eye: The classification of DMI according to specifications provided in the Federal Hazardous Substances Act for the specified test and concentration are shown below: […]

[6] = system: human skin; assay: Human Patch Tests; assay type: in vivo
From the text: Undiluted dimethyl ether of isosorbide has been tested under a closed patch of human subjects in accordance with the […] patch-test procedure originally designed by the dermatologist, B. Schwartz, M.D., and more recently adapted by R. B. Osbourn, M.D.

[7] = system: rats; assay: Acute Oral Toxicity--Rat; assay type: in vivo
Procedure: An approximate oral LD50 of dimethyl isorbide was determined.

[8] = system: rabbit skin; settings: in vivo; remark: listed apart in the source
[9] = system: external auditory canal of rabbit ear; assay: Instillation into Rabbit Ear; assay type: in vivo; settings: four right rabbit ears, up to 5 days
Procedure: DMI was introduced onto the external auditory canal of each of four right rabbit ears. Likewise, four other right rabbit ears were instilled with 0.35 ml of 40% DMI in water.

## CO[C@H]1CO[C@H]2[C@@H]1OC[C@H]2OC [Dimethyl isosorbide, dimethyl isosorbide]
[1]
  toxicity (preliminary studies): practically nontoxic
[2]
  erythema: transitory mild to moderate erythema
  gross pathological findings: No gross pathological findings
[3]
  chemical interaction with aspirin / induction of aspirin degradation: does not interact chemically with aspirin, not does it induce the degradation of aspirin
[4]; undiluted, 1.00, 2.15, 4.64 and 10.0 ml per kg
  survival: All rabbits survived
[4]; undiluted, rabbit skin under rubber dental dam, 24 hours
  acute percutaneous toxicity: greater than 10 ml per kg of body weight
[5]; 40%, lot A, test 1
  Class. as Irritating Code of Federal Regulations: Negative
  No. of Eyes Positive / No. of Eyes Tested CFR: 0/6
[5]; 40%, lot A, test 1, 3 eyes, washed 2 sec., 1 hour
  Average Score (out of potential 100): 0.0
[5]; 40%, lot A, test 1, 3 eyes, washed 2 sec., 24 hours
  Average Score (out of potential 100): 0.0
[5]; 40%, lot A, test 1, 3 eyes, washed 2 sec., 48 hours
  Average Score (out of potential 100): 0.0
[5]; 40%, lot A, test 1, 3 eyes, washed 2 sec., 72 hours
  Average Score (out of potential 100): 0.0
[5]; 40%, lot A, test 1, 3 eyes, washed 2 sec., 96 hours
  Average Score (out of potential 100): 0.0
[5]; 40%, lot A, test 1, 3 eyes, washed 2 sec., 7 days
  Average Score (out of potential 100): 0.0
[5]; 40%, lot A, test 1, 6 eyes, unwashed, 1 hour
  Average Score (out of potential 100): 0.0
[5]; 40%, lot A, test 1, 6 eyes, unwashed, 24 hours
  Average Score (out of potential 100): 0.0
[5]; 40%, lot A, test 1, 6 eyes, unwashed, 48 hours
  Average Score (out of potential 100): 0.0
[5]; 40%, lot A, test 1, 6 eyes, unwashed, 72 hours
  Average Score (out of potential 100): 0.0
[5]; 40%, lot A, test 1, 6 eyes, unwashed, 96 hours
  Average Score (out of potential 100): 0.0
[5]; 40%, lot A, test 1, 6 eyes, unwashed, 7 days
  Average Score (out of potential 100): 0.0
[5]; 40%, lot A, test 1, unwashed eye
  Classification (Kay and Calandra): Nonirritating
[5]; 60%, lot A, test 1
  Class. as Irritating Code of Federal Regulations: Negative
  No. of Eyes Positive / No. of Eyes Tested CFR: 0/6
[5]; 60%, lot A, test 1, 3 eyes, washed 2 sec., 1 hour
  Average Score (out of potential 100): 0.0
[5]; 60%, lot A, test 1, 3 eyes, washed 2 sec., 24 hours
  Average Score (out of potential 100): 0.0
[5]; 60%, lot A, test 1, 3 eyes, washed 2 sec., 48 hours
  Average Score (out of potential 100): 0.0
[5]; 60%, lot A, test 1, 3 eyes, washed 2 sec., 72 hours
  Average Score (out of potential 100): 0.0
[5]; 60%, lot A, test 1, 3 eyes, washed 2 sec., 96 hours
  Average Score (out of potential 100): 0.0
[5]; 60%, lot A, test 1, 3 eyes, washed 2 sec., 7 days
  Average Score (out of potential 100): 0.0
[5]; 60%, lot A, test 1, 6 eyes, unwashed, 1 hour
  Average Score (out of potential 100): 0.0
[5]; 60%, lot A, test 1, 6 eyes, unwashed, 24 hours
  Average Score (out of potential 100): 0.0
[5]; 60%, lot A, test 1, 6 eyes, unwashed, 48 hours
  Average Score (out of potential 100): 0.0
[5]; 60%, lot A, test 1, 6 eyes, unwashed, 72 hours
  Average Score (out of potential 100): 0.0
[5]; 60%, lot A, test 1, 6 eyes, unwashed, 96 hours
  Average Score (out of potential 100): 0.0
[5]; 60%, lot A, test 1, 6 eyes, unwashed, 7 days
  Average Score (out of potential 100): 0.0
[5]; 60%, lot A, test 1, unwashed eye
  Classification (Kay and Calandra): Nonirritating
[5]; 80%, lot A, test 1
  Class. as Irritating Code of Federal Regulations: Negative
  No. of Eyes Positive / No. of Eyes Tested CFR: 0/6
[5]; 80%, lot A, test 1, 3 eyes, washed 2 sec., 1 hour
  Average Score (out of potential 100): 0.0
[5]; 80%, lot A, test 1, 3 eyes, washed 2 sec., 24 hours
  Average Score (out of potential 100): 0.0
[5]; 80%, lot A, test 1, 3 eyes, washed 2 sec., 48 hours
  Average Score (out of potential 100): 0.0
[5]; 80%, lot A, test 1, 3 eyes, washed 2 sec., 72 hours
  Average Score (out of potential 100): 0.0
[5]; 80%, lot A, test 1, 3 eyes, washed 2 sec., 96 hours
  Average Score (out of potential 100): 0.0
[5]; 80%, lot A, test 1, 3 eyes, washed 2 sec., 7 days
  Average Score (out of potential 100): 0.0
[5]; 80%, lot A, test 1, 6 eyes, unwashed, 1 hour
  Average Score (out of potential 100): 0.0
[5]; 80%, lot A, test 1, 6 eyes, unwashed, 24 hours
  Average Score (out of potential 100): 0.0
[5]; 80%, lot A, test 1, 6 eyes, unwashed, 48 hours
  Average Score (out of potential 100): 0.0
[5]; 80%, lot A, test 1, 6 eyes, unwashed, 72 hours
  Average Score (out of potential 100): 0.0
[5]; 80%, lot A, test 1, 6 eyes, unwashed, 96 hours
  Average Score (out of potential 100): 0.0
[5]; 80%, lot A, test 1, 6 eyes, unwashed, 7 days
  Average Score (out of potential 100): 0.0
[5]; 80%, lot A, test 1, unwashed eye
  Classification (Kay and Calandra): Nonirritating
[5]; 100%, lot A, test 1
  Class. as Irritating Code of Federal Regulations: Positive
  No. of Eyes Positive / No. of Eyes Tested CFR: 4/6
[5]; 100%, lot A, test 1, 3 eyes, washed 2 sec., 1 hour
  Average Score (out of potential 100): 0.0
[5]; 100%, lot A, test 1, 3 eyes, washed 2 sec., 24 hours
  Average Score (out of potential 100): 0.0
[5]; 100%, lot A, test 1, 3 eyes, washed 2 sec., 48 hours
  Average Score (out of potential 100): 0.0
[5]; 100%, lot A, test 1, 3 eyes, washed 2 sec., 72 hours
  Average Score (out of potential 100): 0.0
[5]; 100%, lot A, test 1, 3 eyes, washed 2 sec., 96 hours
  Average Score (out of potential 100): 0.0
[5]; 100%, lot A, test 1, 3 eyes, washed 2 sec., 7 days
  Average Score (out of potential 100): 0.0
[5]; 100%, lot A, test 1, 6 eyes, unwashed, 1 hour
  Average Score (out of potential 100): 0.0
[5]; 100%, lot A, test 1, 6 eyes, unwashed, 24 hours
  Average Score (out of potential 100): 15.0
[5]; 100%, lot A, test 1, 6 eyes, unwashed, 48 hours
  Average Score (out of potential 100): 10.3
[5]; 100%, lot A, test 1, 6 eyes, unwashed, 72 hours
  Average Score (out of potential 100): 10.0
[5]; 100%, lot A, test 1, 6 eyes, unwashed, 96 hours
  Average Score (out of potential 100): 10.0
[5]; 100%, lot A, test 1, 6 eyes, unwashed, 7 days
  Average Score (out of potential 100): 10.0
[5]; 100%, lot A, test 1, unwashed
  score of one eye (zero): zero
[5]; 100%, lot A, test 1, unwashed eye
  Classification (Kay and Calandra): Cannot be classified
[5]; 100%, lot A, test 1, unwashed, no other eye greater at any reading
  maximum score of other eyes: ≤ 14
[5]; 100%, lot A, test 1, unwashed, consistent score
  score of one eye: 60-64
[5]; 100%, lot A, test 2
  Class. as Irritating Code of Federal Regulations: Negative
  No. of Eyes Positive / No. of Eyes Tested CFR: 0/6
[5]; 100%, lot A, test 2, 3 eyes, washed 2 sec., 1 hour
  Average Score (out of potential 100): 0.0
[5]; 100%, lot A, test 2, 3 eyes, washed 2 sec., 24 hours
  Average Score (out of potential 100): 0.0
[5]; 100%, lot A, test 2, 3 eyes, washed 2 sec., 48 hours
  Average Score (out of potential 100): 0.0
[5]; 100%, lot A, test 2, 3 eyes, washed 2 sec., 72 hours
  Average Score (out of potential 100): 0.0
[5]; 100%, lot A, test 2, 3 eyes, washed 2 sec., 96 hours
  Average Score (out of potential 100): 0.0
[5]; 100%, lot A, test 2, 3 eyes, washed 2 sec., 7 days
  Average Score (out of potential 100): 0.0
[5]; 100%, lot A, test 2, 6 eyes, unwashed, 1 hour
  Average Score (out of potential 100): 0.0
[5]; 100%, lot A, test 2, 6 eyes, unwashed, 24 hours
  Average Score (out of potential 100): 0.0
[5]; 100%, lot A, test 2, 6 eyes, unwashed, 48 hours
  Average Score (out of potential 100): 0.0
[5]; 100%, lot A, test 2, 6 eyes, unwashed, 72 hours
  Average Score (out of potential 100): 0.0
[5]; 100%, lot A, test 2, 6 eyes, unwashed, 96 hours
  Average Score (out of potential 100): 0.0
[5]; 100%, lot A, test 2, 6 eyes, unwashed, 7 days
  Average Score (out of potential 100): 0.0
[5]; 100%, lot A, test 2, unwashed eye
  Classification (Kay and Calandra): Nonirritating
[5]; 100%, lot B, test 1
  Class. as Irritating Code of Federal Regulations: Negative
  No. of Eyes Positive / No. of Eyes Tested CFR: 0/6
[5]; 100%, lot B, test 1, 3 eyes, washed 2 sec., 1 hour
  Average Score (out of potential 100): 2.7
[5]; 100%, lot B, test 1, 3 eyes, washed 2 sec., 24 hours
  Average Score (out of potential 100): 18.0
[5]; 100%, lot B, test 1, 3 eyes, washed 2 sec., 48 hours
  Average Score (out of potential 100): 17.3
[5]; 100%, lot B, test 1, 3 eyes, washed 2 sec., 72 hours
  Average Score (out of potential 100): 9.4
[5]; 100%, lot B, test 1, 3 eyes, washed 2 sec., 96 hours
  Average Score (out of potential 100): 8.7
[5]; 100%, lot B, test 1, 3 eyes, washed 2 sec., 7 days
  Average Score (out of potential 100): 0.0
[5]; 100%, lot B, test 1, 6 eyes, unwashed, 1 hour
  Average Score (out of potential 100): 3.7
[5]; 100%, lot B, test 1, 6 eyes, unwashed, 24 hours
  Average Score (out of potential 100): 11.3
[5]; 100%, lot B, test 1, 6 eyes, unwashed, 48 hours
  Average Score (out of potential 100): 5.6
[5]; 100%, lot B, test 1, 6 eyes, unwashed, 72 hours
  Average Score (out of potential 100): 5.0
[5]; 100%, lot B, test 1, 6 eyes, unwashed, 96 hours
  Average Score (out of potential 100): 5.0
[5]; 100%, lot B, test 1, 6 eyes, unwashed, 7 days
  Average Score (out of potential 100): 4.6
[5]; 100%, lot B, test 1, unwashed
  score of one other eye (zero): zero
[5]; 100%, lot B, test 1, unwashed eye
  Classification (Kay and Calandra): Mildly irritating
[5]; 100%, lot B, test 1, unwashed, consistently
  score of one eye: 28-30
[5]; undiluted
  variability in response of individual rabbit eyes: considerable variability in the response of individual rabbit eyes
[6]; 100%, closed patch
  No. of Reactors/No. of Subj. Tested, 1st Appl.: 0/200
  No. of Reactors/No. of Subj. Tested, Both Appl.: 2/200
[6]; second application only, two subjects
  grade of reaction of the two reactors: questionable (1) reaction
[6]; semiclosed patch, another site, 48 hours later
  retest of the two reactors: both were negative 48 hours
[6]; undiluted, human skin
  primary irritant / skin sensitizer conclusion: neither a primary irritant to the human skin nor a skin sensitizer
[7]
  Signs of intoxication: depression, lacrimation, labored respiration, tachcardia and ataxia
  classification for acute oral toxicities (Hodge and Sterner): practically nontoxic
[7]; 6.81 and 10.0 ml/kg
  examination of the tissues of the animals that died: hyperemic lungs, slight irritation of the small intestine and congestion of kidneys and adrenals
  mortality: all of the 10 rats given the two higher dosages died
[8]
  individual score of single positive reading: 1.0
  score (edema or erythema): No score (edema or erythema) was obtained on any of the rabbits
[9]; 0.35 ml of 40% DMI in water
  irritation to the integument of the external auditory canal: No irritation to the integument of the external auditory canal was observed
[9]; DMI
  irritation to the integument of the external auditory canal: No irritation to the integument of the external auditory canal was observed
